Results: patent US6525214B1, “Therapeutic agent” (priority 1991, dated 2003)

Key:
[1] = Appearance of formulation made with the drug form; format: physicochemical
Description: The polyethylene glycol was mixed with about 25% of the required purified water and the Carbopol® dispersed in this mixture. About 56% of the required purified water was added with rapid stirring until the CARBOPOL® was well dispersed and appeared hydrated. The sodium hydroxide was dissolved in a minimum of purified water and added to the bulk with stirring. The S(+)-ibuprofen sodium salt dihydrate was dissolved in a mixture of phenoxyethanol, propylene glycol and remaining purified water and added to the Carbopol® gel with rapid stirring.
The LYCASIN® and glycerin were mixed together. The domiphen bromide was dissolved in the alcohol. The sodium salt was added to this alcoholic solution along with sufficient purified water to produce a solution. The aqueous alcoholic solution was added to the LYCASIN®/glycerin mixture and mixed well. Optional flavourings may be added to the above formulation.
The LYCASIN® and glycerin were mixed together and diluted with a suitable volume of water. The sodium salt was dispersed and dissolved in the mixture. The domiphen bromide was dissolved in the alcohol and this solution added slowly with stirring to the bulk. The formulation was made up to volume and mixed well. Optional flavourings may be added to the formulation.
The powders were sieved through a 30 mesh sieve and blended together, then filled into sachets containing 2000 mg of powder. Optional flavourings may be added to the above mixture.

[2] = in humans; cited from earlier work
[3] = topical gel formulation of Example 20 (Carbopol gel base)
[4] = higher strength oral liquid formulation of Example 25
[5] = low strength oral liquid formulation of Example 23

Row | SMILES | Appearance of product [1, 3] | Appearance on addition to hot water ([1]; cold relief powder formulation base of Example 27, hot water 70° C. or greater) | Appearance of product [1, 4] | Appearance of product [1, 5] | Conversion into S(+)-ibuprofen [2]
1 | CC(C)Cc1ccc(C(C)C(=O)[O-])cc1.[Na+] (racemic) [sodium salt of ibuprofen racemate, sodium 2-(4-isobutylphenyl)propionate] | a totally unsatisfactory product that separated into a clear upper liquid and a cloudy viscous lower layer |  |  |  | 
2 | CC(C)Cc1ccc([C@H](C)C(=O)O)cc1 [S(+)-ibuprofen free acid, S(+)-2-(4-isobutylphenyl)propionic acid] | an opaque product of a high viscosity not suitable for use as a topical rub | an unpalatable oily layer on the surface of the hot water | an unsuitable product with the drug floating on the surface | a poor product with a significant proportion of the S(+)-ibuprofen floating on the surface of the product | 
3 | CC(C)Cc1ccc([C@@H](C)C(=O)O)cc1 [R(−)-ibuprofen, R(−)-2-(4-isobutylphenyl)propionic acid] |  |  |  |  | partially converted into S(+)-ibuprofen
4 | CC(C)Cc1ccc([C@H](C)C(=O)[O-])cc1.O.O.[Na+] [S(−)sodium 2-(4-isobutylphenyl)propionate dihydrate] |  |  | a clear bright liquid | a bright clear product | 
